In patent US9504669B2, “Spliceostatin analogs and methods for their preparation” (PFIZER INC., priority 2012, dated 2016):

Tests used:
Assay type in all cases: cell-based
Settings in all cases: free compounds (natural products and synthetic analogs), cell viability 96 hours after treatment
[1] = system: MDA-MB-361-DYT2 (breast cancer) cells; test: In vitro cell assay (MTS cell viability), MDA-MB-361-DYT2
Procedure, shortened: (§1)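 Cells seeded 24 h, then treated with antibody-drug conjugates or free drug, 3-fold serial dilutions at 10 concentrations in duplicate. Viability by MTS at 96 h as percent of untreated control; IC50 from four-parameter logistic fit.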

[2] = system: BT474 (breast cancer) cells; test: In vitro cell assay (MTS cell viability), BT474
Procedure, shortened: as §1

[3] = system: N87 (gastric cancer) cells; test: In vitro cell assay (MTS cell viability), N87
Procedure, shortened: as §1

SMILES	IC50 ([1]; 96 h)	IC50 ([2]; Homo sapiens, BT-474)	IC50 ([3]; 96 h)	IC50 [1]	IC50 [2]	IC50 [3]
CSCCN(C)C(=O)C[C@@H]1C[C@@]2(CO2)[C@H](O)[C@@H](/C=C/C(C)=C/C[C@@H]2O[C@H](C)[C@H](NC(=O)/C=C\[C@H](C)OC(C)=O)C[C@@H]2C)O1 [#B82, (2S,3Z)-5-{[(2R,3R,5S,6S)-6-{(2E,4E)-5-[(3R,4R,5R,7S)-4-hydroxy-7-(2-{methyl[2-(methylsulfanyl)ethyl]amino}-2-oxoethyl)-1,6-dioxaspiro[2.5]oct-5-yl]-3-methylpenta-2,4-dien-1-yl}-2,5-dimethyltetrahydro-2H-pyran-3-yl]amino}-5-oxopent-3-en-2-yl acetate]	0.251 nM	0.288 nM	0.12 nM			
CNc1cccc(CNC(=O)C[C@@H]2C[C@@]3(CO3)[C@H](O)[C@@H](/C=C/C(C)=C/C[C@@H]3O[C@H](C)[C@H](NC(=O)/C=C\[C@H](C)OC(C)=O)C[C@@H]3C)O2)c1 [#B83, (2S,3Z)-5-{[(2R,3R,5S,6S)-6-{(2E,4E)-5-[(3R,4R,5R,7S)-4-hydroxy-7-(2-{[3-(methylamino)benzyl]amino}-2-oxoethyl)-1,6-dioxaspiro[2.5]oct-5-yl]-3-methylpenta-2,4-dien-1-yl}-2,5-dimethyltetrahydro-2H-pyran-3-yl]amino}-5-oxopent-3-en-2-yl acetate]	2.59 nM	1.45 nM	1.05 nM			
CC(=O)O[C@@H](C)/C=C\C(=O)N[C@@H]1C[C@H](C)[C@H](C/C=C(C)/C=C/[C@H]2O[C@H](CC(=O)NCc3ccc(N)cc3F)C[C@@]3(CO3)[C@@H]2O)O[C@@H]1C [#B84, (2S,3Z)-5-{[(2R,3R,5S,6S)-6-{(2E,4E)-5-[(3R,4R,5R,7S)-7-{2-[(4-amino-2-fluorobenzyl)amino]-2-oxoethyl}-4-hydroxy-1,6-dioxaspiro[2.5]oct-5-yl]-3-methylpenta-2,4-dien-1-yl}-2,5-dimethyltetrahydro-2H-pyran-3-yl]amino}-5-oxopent-3-en-2-yl acetate]	8.27 nM	2.53 nM	2.54 nM			
CC(=O)O[C@@H](C)/C=C\C(=O)N[C@@H]1C[C@H](C)[C@H](C/C=C(C)/C=C/[C@H]2O[C@H](CC(=O)NCc3ccc(N)c(F)c3)C[C@@]3(CO3)[C@@H]2O)O[C@@H]1C [#B85, (2S,3Z)-5-{[(2R,3R,5S,6S)-6-{(2E,4E)-5-[(3R,4R,5R,7S)-7-{2-[(4-amino-3-fluorobenzyl)amino]-2-oxoethyl}-4-hydroxy-1,6-dioxaspiro[2.5]oct-5-yl]-3-methylpenta-2,4-dien-1-yl}-2,5-dimethyltetrahydro-2H-pyran-3-yl]amino}-5-oxopent-3-en-2-yl acetate]	5.5 nM	1.47 nM	1.56 nM			
CC(=O)O[C@@H](C)/C=C\C(=O)N[C@@H]1C[C@H](C)[C@H](C/C=C(C)/C=C/[C@H]2O[C@H](CC(=O)NCc3ccc(N)c(C(F)(F)F)c3)C[C@@]3(CO3)[C@@H]2O)O[C@@H]1C [#B88, (2S,3Z)-5-{[(2R,3R,5S,6S)-6-{(2E,4E)-5-[(3R,4R,5R,7S)-7-(2-{[4-amino-3-(trifluoromethyl)benzyl]amino}-2-oxoethyl)-4-hydroxy-1,6-dioxaspiro[2.5]oct-5-yl]-3-methylpenta-2,4-dien-1-yl}-2,5-dimethyltetrahydro-2H-pyran-3-yl]amino}-5-oxopent-3-en-2-yl acetate]	2.96 nM	1.8 nM	0.73 nM			
CC(=O)O[C@@H](C)/C=C\C(=O)N[C@@H]1C[C@H](C)[C@H](C/C=C(C)/C=C/[C@H]2O[C@H](CC(=O)NCc3cccc(N)c3)C[C@@]3(CO3)[C@@H]2O)O[C@@H]1C [#B89, (2S,3Z)-5-{[(2R,3R,5S,6S)-6-{(2E,4E)-5-[(3R,4R,5R,7S)-7-{2-[(3-aminobenzyl)amino]-2-oxoethyl}-4-hydroxy-1,6-dioxaspiro[2.5]oct-5-yl]-3-methylpenta-2,4-dien-1-yl}-2,5-dimethyltetrahydro-2H-pyran-3-yl]amino}-5-oxopent-3-en-2-yl acetate]	7.99 nM	3.56 nM	1.91 nM			
CC(=O)O[C@@H](C)/C=C\C(=O)N[C@@H]1C[C@H](C)[C@H](C/C=C(C)/C=C/[C@H]2O[C@H](CC(=O)N(C)Cc3ccc(S(=O)(=O)N(C)C)cc3)C[C@@]3(CO3)[C@@H]2O)O[C@@H]1C [#B91, (2S,3Z)-5-{[(2R,3R,5S,6S)-6-{(2E,4E)-5-[(3R,4R,5R,7S)-7-(2-{[4-(dimethylsulfamoyl)benzyl](methyl)amino}-2-oxoethyl)-4-hydroxy-1,6-dioxaspiro[2.5]oct-5-yl]-3-methylpenta-2,4-dien-1-yl}-2,5-dimethyltetrahydro-2H-pyran-3-yl]amino}-5-oxopent-3-en-2-yl acetate]	3.78 nM	3.02 nM	0.783 nM			
CC(=O)O[C@@H](C)/C=C\C(=O)N[C@@H]1C[C@H](C)[C@H](C/C=C(C)/C=C/[C@H]2O[C@H](CC(=O)NCc3cc(N)ccc3F)C[C@@]3(CO3)[C@@H]2O)O[C@@H]1C [#B92, (2S,3Z)-5-{[(2R,3R,5S,6S)-6-{(2E,4E)-5-[(3R,4R,5R,7S)-7-{2-[(5-amino-2-fluorobenzyl)amino]-2-oxoethyl}-4-hydroxy-1,6-dioxaspiro[2.5]oct-5-yl]-3-methylpenta-2,4-dien-1-yl}-2,5-dimethyltetrahydro-2H-pyran-3-yl]amino}-5-oxopent-3-en-2-yl acetate]	6.18 nM	2.28 nM	1.5 nM			
CC(=O)O[C@@H](C)/C=C\C(=O)N[C@@H]1C[C@H](C)[C@H](C/C=C(C)/C=C/[C@H]2O[C@H](CC(=O)NCc3ccc(S(=O)(=O)N(C)C)cc3)C[C@@]3(CO3)[C@@H]2O)O[C@@H]1C [#B93, (2S,3Z)-5-{[(2R,3R,5S,6S)-6-{(2E,4E)-5-[(3R,4R,5R,7S)-7-(2-{[4-(dimethylsulfamoyl)benzyl]amino}-2-oxoethyl)-4-hydroxy-1,6-dioxaspiro[2.5]oct-5-yl]-3-methylpenta-2,4-dien-1-yl}-2,5-dimethyltetrahydro-2H-pyran-3-yl[amino}-5-oxopent-3-en-2-yl acetate]				3.96 nM	2.27 nM	0.647 nM
CNS(=O)(=O)c1ccc(CNC(=O)C[C@@H]2C[C@@]3(CO3)[C@H](O)[C@@H](/C=C/C(C)=C/C[C@@H]3O[C@H](C)[C@H](NC(=O)/C=C\[C@H](C)OC(C)=O)C[C@@H]3C)O2)cc1 [#B94, (2S,3Z)-5-{[(2R,3R,5S,6S)-6-{(2E,4E)-5-[(3R,4R,5R,7S)-4-hydroxy-7-(2-{[4-(methylsulfamoyl)benzyl]amino}-2-oxoethyl)-1,6-dioxaspiro[2.5]oct-5-yl]-3-methylpenta-2,4-dien-1-yl}-2,5-dimethyltetrahydro-2H-pyran-3-yl]amino}-5-oxopent-3-en-2-yl acetate]	37.4 nM	18.6 nM	4.9 nM			
CC(=O)O[C@@H](C)/C=C\C(=O)N[C@@H]1C[C@H](C)[C@H](C/C=C(C)/C=C/[C@@H]2C[C@]3(CO3)C[C@@H](CC(=O)NCCO)O2)O[C@@H]1C [#B95, ((2S,3Z)-5-{[(2R,3R,5S,6S)-6-{(2E,4E)-5-[(3S,5S,7S)-7-{2-[(2-hydroxyethyl)amino]-2-oxoethyl}-1,6-dioxaspiro[2.5]oct-5-yl]-3-methylpenta-2,4-dien-1-yl}-2,5-dimethyltetrahydro-2H-pyran-3-yl]amino}-5-oxopent-3-en-2-yl acetate]				11.1 nM	1.28 nM	1.06 nM
